The values that follow come from patent publication US20080096894A1, “Anti-Bacterial Compounds” (ASTON UNIVERSITY, priority 2005, published 2008).

The test system of this assay is MRSA. Briefly: MIC, agar dilution, multipoint inoculator. Type of assay: cell-based, methicillin-resistant Staphylococcus aureus. To be noted: Staphylococcus aureus. In short, it runs like this:
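Agar dilution MIC on Mueller Hinton agar, multipoint inoculator delivering 10^4 colony forming units per spot. MRSA values are ranges across ten clinical MRSA strains; S. aureus NCTC 6571 as reference strain.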
On the technique in general: In agar dilution, organisms are placed on agar that contains the substance at set levels.

The term MIC denotes the lowest concentration that inhibits growth of the organism.

Values after ≈ are worked out from the molar mass of the structure shown. Where two headings read alike, the source gives them in different places.

In the case of `CC(C)(C)c1cc(/C=N/N=C(\N)c2ccncc2)c(O)c(C(C)(C)C)c1` [Compound 4PYcq], the MIC runs as follows: (18 h, MRSA Isolate 1, upper value of MIC reading, read-out: MIC) 4 µg/mL (≈ 11.3 µM); (18 h, MRSA Isolate 2, upper value of MIC reading, read-out: MIC) 4 µg/mL (≈ 11.3 µM); (18 h, MRSA Isolate 3, upper value of MIC reading, read-out: MIC) 4 µg/mL (≈ 11.3 µM); (18 h, MRSA Isolate 4, upper value of MIC reading, read-out: MIC) 4 µg/mL (≈ 11.3 µM); (18 h, MRSA Isolate 5, upper value of MIC reading, read-out: MIC) 4 µg/mL (≈ 11.3 µM); (18 h, MRSA Isolate 6, upper value of MIC reading, read-out: MIC) 4 µg/mL (≈ 11.3 µM). Moreover, the MIC reads like this: (18 h, MRSA Isolate 7, upper value of MIC reading, read-out: MIC) 4 µg/mL (≈ 11.3 µM); (18 h, MRSA Isolate 8, upper value of MIC reading, read-out: MIC) 4 µg/mL (≈ 11.3 µM); (18 h, MRSA Isolate 9, upper value of MIC reading, read-out: MIC) 4 µg/mL (≈ 11.3 µM); (18 h, MRSA Isolate 10, upper value of MIC reading, read-out: MIC) 4 µg/mL (≈ 11.3 µM); (MRSA, 18 h, panel of ten MRSA strains (clinical isolates), read-out: MRSA MIC range) 2 to 4 µg/mL (≈ 5.67 to 11.3 µM); (MRSA, the MRSA strains which were tested, read-out: MIC) 2 to 4 µg/mL (≈ 5.67 to 11.3 µM).
